Values after ≈ are worked out from the molar mass of the structure shown.
What was measured:
[1] = Cytotoxicity against mouse J774.A1 cells assessed as cell survival by XTT assay; assay type: toxicity, cell-based; details: read-out: Activity
HEK293 [2] = test: Cytotoxicity against HEK293 cells assessed as cell survival at 8 microg/ml by XTT assay; assay type: toxicity, cell-based; details: human, dose 8 µg/ml
Aspergillus terreus [3] = test: Synergistic antifungal activity against Aspergillus terreus ATCC MYA-3633 assessed as voriconazole MIC measured after 48 hrs by checkboard based microplate reader analysis; assay type: functional
Nakaseomyces glabratus [4] = test: Antifungal activity against Candida glabrata ATCC 2001 measured after 48 hrs by broth microdilution analysis; assay type: functional
Aspergillus terreus [5] = test: Antifungal activity against Aspergillus terreus ATCC MYA-3633 measured after 48 hrs by broth microdilution analysis; assay type: functional
Candida albicans [6] = test: Antifungal activity against Candida albicans ATCC 64124 measured after 48 hrs by broth microdilution analysis; assay type: functional
[7] = Cytotoxicity against mouse J774.A1 cells assessed as cell survival at 8 microg/ml by XTT assay; assay type: toxicity, cell-based; details: J774.A1 cells, at 8 µg/mL, read-out: Activity
Candida albicans [8] = test: Antifungal activity against Candida albicans ATCC 90819 measured after 48 hrs by broth microdilution analysis; assay type: functional
Candida albicans [9] = test: Antifungal activity against Candida albicans ATCC MYA-1237 measured after 48 hrs by broth microdilution analysis; assay type: functional
BEAS-2B [10] = test: Cytotoxicity against human BEAS-2B cells assessed as cell survival up to 4 microg/ml by XTT assay; assay type: toxicity, cell-based; details: dose < 4 µg/ml
Candida albicans [11] = test: microbe, parasite or virus in culture; details: ATCC 64124, 48 h
Description: Synergistic antifungal activity against Candida albicans ATCC 64124 assessed as voriconazole MIC measured after 48 hrs by checkboard based microplate reader analysis

Candida albicans [12] = test: Antifungal activity against Candida albicans ATCC MYA-1003 measured after 48 hrs by broth microdilution analysis; assay type: functional
Candida albicans [13] = test: Synergistic antifungal activity against Candida albicans ATCC MYA-1003 assessed as voriconazole MIC measured after 48 hrs by checkboard based microplate reader analysis; assay type: functional
[14] = Cytotoxicity against human BEAS-2B cells assessed as cell survival by XTT assay; assay type: toxicity, cell-based; details: read-out: Activity
Candida albicans [15] = test: Synergistic antifungal activity against Candida albicans ATCC MYA-1237 assessed as voriconazole MIC measured after 48 hrs by checkboard based microplate reader analysis; assay type: functional
Candida albicans [16] = test: microbe, parasite or virus in culture; details: ATCC 90819, 48 h
Description: Synergistic antifungal activity against Candida albicans ATCC 90819 assessed as voriconazole MIC measured after 48 hrs by checkboard based microplate reader analysis

Candida albicans [17] = test: microbe, parasite or virus in culture; details: ATCC 10231, 48 h
Description: Synergistic antifungal activity against Candida albicans ATCC 10231 assessed as voriconazole MIC measured after 48 hrs by checkboard based microplate reader analysis

J774.A1 [18] = test: Cytotoxicity against mouse J774.A1 cells assessed as cell survival at 4 to 16 microg/ml by XTT assay; assay type: toxicity, cell-based; details: dose 4-16 µg/ml
Candida albicans [19] = test: Antifungal activity against Candida albicans ATCC 10231 measured after 48 hrs by broth microdilution analysis; assay type: functional
Candida albicans [20] = test: Synergistic antifungal activity against Candida albicans ATCC MYA-2310 assessed as voriconazole MIC measured after 48 hrs by checkboard based microplate reader analysis; assay type: functional
Candida albicans [21] = test: Additive antifungal activity against Candida albicans ATCC MYA-1237 assessed as fractional inhibitory concentration index measured for 72 hrs in presence of voriconazole; assay type: functional
J774.A1 [22] = test: Cytotoxicity against mouse J774.A1 cells assessed as cell survival up to 4 microg/ml by XTT assay; assay type: toxicity, cell-based; details: dose < 4 µg/ml
Candida albicans [23] = test: Synergistic antifungal activity against Candida albicans ATCC MYA-2876 assessed as voriconazole MIC measured after 48 hrs by checkboard based microplate reader analysis; assay type: functional
Nakaseomyces glabratus [24] = test: Synergistic antifungal activity against Candida glabrata ATCC 2001 assessed as voriconazole MIC measured after 48 hrs by checkboard based microplate reader analysis; assay type: functional
[25] = Cytotoxicity against HEK293 cells assessed as cell survival by XTT assay; assay type: toxicity, cell-based; details: human, read-out: Activity
HEK293 [26] = test: Cytotoxicity against HEK293 cells assessed as cell survival at 4 to 16 microg/ml by XTT assay; assay type: toxicity, cell-based; details: human, dose 4-16 µg/ml
HEK293 [27] = test: Cytotoxicity against HEK293 cells assessed as cell survival up to 4 microg/ml by XTT assay; assay type: toxicity, cell-based; details: human, dose < 4 µg/ml
BEAS-2B [28] = test: Cytotoxicity against human BEAS-2B cells assessed as cell survival at 4 to 16 microg/ml by XTT assay; assay type: toxicity, cell-based; details: dose 4-16 µg/ml
Candida albicans [29] = test: Antifungal activity against Candida albicans ATCC MYA-2876 measured after 48 hrs by broth microdilution analysis; assay type: functional
Candida albicans [30] = test: Potency index, ratio of fluconazole MIC to test compound MIC for antifungal activity against Candida albicans ATCC 10231 measured after 48 hrs by broth microdilution analysis; assay type: functional
Candida albicans [31] = test: Additive antifungal activity against Candida albicans MYA-1003 assessed as fractional inhibitory concentration index measured for 72 hrs in presence of voriconazole
Candida albicans [32] = test: Additive antifungal activity against Candida albicans ATCC 64124 assessed as fractional inhibitory concentration index measured for 72 hrs in presence of ketoconazole; assay type: functional
Candida albicans [33] = test: Synergistic antifungal activity against Candida albicans ATCC 64124 assessed as compound MIC measured after 48 hrs in presence of ketoconazole by checkboard based microplate reader analysis; assay type: functional
Candida albicans [34] = test: Additive antifungal activity against Candida albicans ATCC MYA-2310 assessed as fractional inhibitory concentration index measured for 72 hrs in presence of posaconazole; assay type: functional
Candida albicans [35] = test: Synergistic antifungal activity against Candida albicans ATCC 10231 assessed as compound MIC measured after 48 hrs in presence of voriconazole by checkboard based microplate reader analysis; assay type: functional
Candida albicans [36] = test: Additive antifungal activity against Candida albicans ATCC MYA-2310 assessed as fractional inhibitory concentration index measured for 72 hrs in presence of voriconazole; assay type: functional
Candida albicans [37] = test: Additive antifungal activity against Candida albicans ATCC 64124 assessed as fractional inhibitory concentration index measured for 72 hrs in presence of fluconazole; assay type: functional
Candida albicans [38] = test: Synergistic antifungal activity against Candida albicans ATCC 10231 assessed as compound MIC measured after 48 hrs in presence of ketoconazole by checkboard based microplate reader analysis; assay type: functional
Candida albicans [39] = test: Synergistic antifungal activity against Candida albicans ATCC 10231 assessed as compound MIC measured after 48 hrs in presence of fluconazole by checkboard based microplate reader analysis; assay type: functional
Candida albicans [40] = test: Synergistic antifungal activity against Candida albicans ATCC 64124 assessed as compound MIC measured after 48 hrs in presence of itraconazole by checkboard based microplate reader analysis; assay type: functional
Nakaseomyces glabratus [41] = test: Synergistic antifungal activity against Candida glabrata ATCC 2001 assessed as fractional inhibitory concentration index measured for 72 hrs in presence of posaconazole; assay type: functional
Candida albicans [42] = test: Additive antifungal activity against Candida albicans ATCC MYA-1237 assessed as fractional inhibitory concentration index measured for 72 hrs in presence of posaconazole; assay type: functional
Candida albicans [43] = test: Synergistic antifungal activity against Candida albicans ATCC 10231 assessed as compound MIC measured after 48 hrs in presence of posaconazole by checkboard based microplate reader analysis; assay type: functional
Candida albicans [44] = test: Additive antifungal activity against Candida albicans ATCC MYA-2876 assessed as fractional inhibitory concentration index measured for 72 hrs in presence of voriconazole; assay type: functional
Nakaseomyces glabratus [45] = test: Additive antifungal activity against Candida glabrata ATCC 2001 assessed as fractional inhibitory concentration index measured for 72 hrs in presence of posaconazole; assay type: functional
Candida albicans [46] = test: Additive antifungal activity against Candida albicans ATCC 10231 assessed as fractional inhibitory concentration index measured for 72 hrs in presence of fluconazole; assay type: functional
Candida albicans [47] = test: Antifungal activity against Candida albicans ATCC MYA-2310 measured after 48 hrs by broth microdilution analysis; assay type: functional
Candida albicans [48] = test: Additive antifungal activity against Candida albicans ATCC 10231 assessed as fractional inhibitory concentration index measured for 72 hrs in presence of itraconazole; assay type: functional
Candida albicans [49] = test: Additive antifungal activity against Candida albicans ATCC 64124 assessed as fractional inhibitory concentration index measured for 72 hrs in presence of voriconazole; assay type: functional
Candida albicans [50] = test: Additive antifungal activity against Candida albicans ATCC 90819 assessed as fractional inhibitory concentration index measured for 72 hrs in presence of voriconazole; assay type: functional
Candida albicans [51] = test: Additive antifungal activity against Candida albicans ATCC 64124 assessed as fractional inhibitory concentration index measured for 72 hrs in presence of itraconazole; assay type: functional
Candida albicans [52] = test: Synergistic antifungal activity against Candida albicans ATCC 10231 assessed as compound MIC measured after 48 hrs in presence of itraconazole by checkboard based microplate reader analysis; assay type: functional
Candida albicans [53] = test: Synergistic antifungal activity against Candida albicans ATCC 64124 assessed as compound MIC measured after 48 hrs in presence of fluconazole by checkboard based microplate reader analysis; assay type: functional
Candida albicans [54] = test: Additive antifungal activity against Candida albicans ATCC 10231 assessed as fractional inhibitory concentration index measured for 72 hrs in presence of ketoconazole; assay type: functional
Nakaseomyces glabratus [55] = test: Additive antifungal activity against Candida glabrata ATCC 2001 assessed as fractional inhibitory concentration index measured for 72 hrs in presence of voriconazole; assay type: functional
Candida albicans [56] = test: Synergistic antifungal activity against Candida albicans ATCC 64124 assessed as fractional inhibitory concentration index measured for 72 hrs in presence of posaconazole; assay type: functional
Candida albicans [57] = test: Synergistic antifungal activity against Candida albicans ATCC 64124 assessed as compound MIC measured after 48 hrs in presence of posaconazole by checkboard based microplate reader analysis; assay type: functional
Candida albicans [58] = test: Additive antifungal activity against Candida albicans ATCC 90819 assessed as fractional inhibitory concentration index measured for 72 hrs in presence of posaconazole; assay type: functional
Aspergillus terreus [59] = test: Additive antifungal activity against Aspergillus terreus ATCC MYA-3633 assessed as fractional inhibitory concentration index measured for 72 hrs in presence of voriconazole; assay type: functional
Candida albicans [60] = test: Synergistic antifungal activity against Candida albicans ATCC 64124 assessed as compound MIC measured after 48 hrs in presence of voriconazole by checkboard based microplate reader analysis; assay type: functional
Candida albicans [61] = test: Additive antifungal activity against Candida albicans ATCC MYA-2876 assessed as fractional inhibitory concentration index measured for 72 hrs in presence of posaconazole; assay type: functional
Candida albicans [62] = test: Partial synergistic antifungal activity against Candida albicans ATCC 10231 assessed as fractional inhibitory concentration index measured for 72 hrs in presence of voriconazole; assay type: functional

C[C@@H](c1ncncc1F)[C@](O)(Cn1cncn1)c1ccc(F)cc1F [VORICONAZOLE]
viability [1]: > 100%
Activity (HEK293 [2]): Non-Toxic
MIC (Aspergillus terreus [3]): 0.5 µg/mL
MIC (Nakaseomyces glabratus [4]): > 32 µg/mL
MIC (Aspergillus terreus [5]): 0.25 µg/mL (≈ 0.716 µM)
MIC (Candida albicans [6]): > 32 µg/mL
viability at 8 microg/ml [7]: 100%
MIC (Candida albicans [8]): > 32 µg/mL
MIC (Candida albicans [9]): > 32 µg/mL
Activity (BEAS-2B [10]): Non-Toxic
MIC (Candida albicans [11]): 4 µg/mL (≈ 11.5 µM)
MIC (Candida albicans [12]): > 32 µg/mL
MIC (Candida albicans [13]): 2 µg/mL
viability [14]: > 100%
MIC (Candida albicans [15]): > 32 µg/mL
MIC (Candida albicans [16]): 0.25 µg/mL (≈ 0.716 µM)
MIC (Candida albicans [17]): 0.25 µg/mL (≈ 0.716 µM)
Activity (J774.A1 [18]): Non-Toxic
MIC (Candida albicans [19]): 1 µg/mL (≈ 2.86 µM)
MIC (Candida albicans [20]): > 32 µg/mL
fractional inhibitory concentration index (FICI) (Candida albicans [21]): 2
Activity (J774.A1 [22]): Non-Toxic
MIC (Candida albicans [23]): > 32 µg/mL
MIC (Nakaseomyces glabratus [24]): > 32 µg/mL
viability [25]: > 100%
Activity (HEK293 [26]): Non-Toxic
Activity (HEK293 [27]): Non-Toxic
Activity (BEAS-2B [28]): Non-Toxic
MIC (Candida albicans [29]): > 32 µg/mL

COc1ccc(C(=O)CCCN2CCC(O)(c3ccc(Br)cc3)CC2)cc1
Ratio (Candida albicans [30]): 16
fractional inhibitory concentration index (FICI) (Candida albicans [31]): 2
fractional inhibitory concentration index (FICI) (Candida albicans [32]): 1
MIC (Nakaseomyces glabratus [4]): > 128 µg/mL
MIC (Candida albicans [33]): 64 µg/mL
MIC (Aspergillus terreus [5]): > 128 µg/mL
MIC (Candida albicans [6]): > 128 µg/mL
fractional inhibitory concentration index (FICI) (Candida albicans [34]): 2
MIC (Candida albicans [35]): 32 µg/mL
fractional inhibitory concentration index (FICI) (Candida albicans [36]): 2
fractional inhibitory concentration index (FICI) (Candida albicans [37]): 2
MIC (Candida albicans [38]): > 128 µg/mL
MIC (Candida albicans [8]): > 128 µg/mL
MIC (Candida albicans [39]): > 128 µg/mL
MIC (Candida albicans [9]): > 128 µg/mL
MIC (Candida albicans [40]): > 128 µg/mL
fractional inhibitory concentration index (FICI) (Nakaseomyces glabratus [41]): 0.51
MIC (Candida albicans [12]): > 128 µg/mL
fractional inhibitory concentration index (FICI) (Candida albicans [42]): 2
MIC (Candida albicans [43]): > 128 µg/mL
fractional inhibitory concentration index (FICI) (Candida albicans [44]): 2
fractional inhibitory concentration index (FICI) (Nakaseomyces glabratus [45]): 0.5
fractional inhibitory concentration index (FICI) (Candida albicans [46]): 2
MIC (Candida albicans [47]): > 128 µg/mL
fractional inhibitory concentration index (FICI) (Candida albicans [48]): 2
fractional inhibitory concentration index (FICI) (Candida albicans [49]): 1.25
fractional inhibitory concentration index (FICI) (Candida albicans [50]): 2
fractional inhibitory concentration index (FICI) (Candida albicans [51]): 2
MIC (Candida albicans [52]): > 128 µg/mL
MIC (Candida albicans [53]): > 128 µg/mL
MIC (Candida albicans [19]): > 128 µg/mL
fractional inhibitory concentration index (FICI) (Candida albicans [54]): 2
fractional inhibitory concentration index (FICI) (Nakaseomyces glabratus [55]): 2
fractional inhibitory concentration index (FICI) (Candida albicans [56]): 0.13
fractional inhibitory concentration index (FICI) (Candida albicans [21]): 2
MIC (Candida albicans [57]): 8 µg/mL
fractional inhibitory concentration index (FICI) (Candida albicans [58]): 2
fractional inhibitory concentration index (FICI) (Aspergillus terreus [59]): 2
MIC (Candida albicans [60]): 128 µg/mL
MIC (Candida albicans [29]): > 128 µg/mL
fractional inhibitory concentration index (FICI) (Candida albicans [61]): 2
fractional inhibitory concentration index (FICI) (Candida albicans [62]): 0.75
